For test [1], the target named is T1, Cholinesterase (Equus caballus, UniProt P81908).
Description: Inhibition of equine serum BuChE by Ellman's method
Another test has as its target Acetylcholinesterase (Electrophorus electricus, UniProt O42275). In words: Inhibition of electric eel AChE by Ellman's method. A general note: In Ellman's method for cholinesterases, released thiocholine reacts with DTNB.
A short description of test [2]: Antioxidant activity assessed as superoxide anion radical scavenging activity by measuring reduction in anode current by cyclic voltammetry. It counts as functional.
For test [3], the target named is Amyloid-beta precursor protein (Homo sapiens) (UniProt P05067). In words: Inhibition of amyloid beta (1 to 42) (unknown origin) self aggregation at 25 uM by Thioflavin T based fluorometric assay.
Chain of Amyloid-beta precursor protein (Homo sapiens) (P05067 whole entry): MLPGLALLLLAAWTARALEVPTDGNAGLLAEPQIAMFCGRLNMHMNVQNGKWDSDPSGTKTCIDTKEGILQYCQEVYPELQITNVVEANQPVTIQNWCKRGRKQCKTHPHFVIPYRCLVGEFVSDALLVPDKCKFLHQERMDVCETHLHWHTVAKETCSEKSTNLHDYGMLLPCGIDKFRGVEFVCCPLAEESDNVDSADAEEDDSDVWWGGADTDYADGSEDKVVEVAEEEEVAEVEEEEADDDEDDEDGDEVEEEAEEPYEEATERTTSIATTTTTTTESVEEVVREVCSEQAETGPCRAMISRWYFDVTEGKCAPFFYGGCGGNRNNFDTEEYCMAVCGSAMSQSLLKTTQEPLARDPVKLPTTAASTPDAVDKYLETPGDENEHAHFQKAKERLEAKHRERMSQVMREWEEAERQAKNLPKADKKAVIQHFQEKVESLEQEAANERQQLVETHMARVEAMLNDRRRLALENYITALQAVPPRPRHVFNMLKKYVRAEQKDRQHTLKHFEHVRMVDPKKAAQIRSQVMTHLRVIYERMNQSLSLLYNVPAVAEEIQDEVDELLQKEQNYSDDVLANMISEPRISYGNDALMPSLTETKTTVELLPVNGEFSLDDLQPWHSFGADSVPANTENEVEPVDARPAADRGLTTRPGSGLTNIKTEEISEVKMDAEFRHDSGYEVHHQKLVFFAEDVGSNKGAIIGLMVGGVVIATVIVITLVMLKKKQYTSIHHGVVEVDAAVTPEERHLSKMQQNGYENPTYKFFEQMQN
Test [4] is described as follows: Metal chelating activity assessed as Cu2+-complex formation by measuring inhibition of Cu2+ induced amyloid beta (1 to 42) aggregation at 25 uM by Thioflavin T based fluorometric assay.
A short description of test [5]: Antioxidant activity assessed as superoxide anion radical scavenging activity by measuring reduction in cathode current by cyclic voltammetry. It counts as functional.
Test [6] in a line: Metal chelating activity assessed as compound-Zn2+ complex formation by measuring new peak formation by fluorescence emission spectral analysis.
A short description of test [7]: Metal chelating activity assessed as compound-Fe3+ complex formation by UV spectrophotometric analysis.
The nature of test [8]: Metal chelating activity assessed as compound-Fe3+ complex formation by measuring decrease in fluorescence intensity by fluorescence emission spectral analysis.
Test [9] deals with Cholinesterase (Equus caballus) (UniProt P81908). In words: (§1) Mixed type inhibition of equine serum BuChE by double reciprocal analysis. Type of test: cell-free.
Chain of Cholinesterase (Equus caballus) (P81908 whole entry): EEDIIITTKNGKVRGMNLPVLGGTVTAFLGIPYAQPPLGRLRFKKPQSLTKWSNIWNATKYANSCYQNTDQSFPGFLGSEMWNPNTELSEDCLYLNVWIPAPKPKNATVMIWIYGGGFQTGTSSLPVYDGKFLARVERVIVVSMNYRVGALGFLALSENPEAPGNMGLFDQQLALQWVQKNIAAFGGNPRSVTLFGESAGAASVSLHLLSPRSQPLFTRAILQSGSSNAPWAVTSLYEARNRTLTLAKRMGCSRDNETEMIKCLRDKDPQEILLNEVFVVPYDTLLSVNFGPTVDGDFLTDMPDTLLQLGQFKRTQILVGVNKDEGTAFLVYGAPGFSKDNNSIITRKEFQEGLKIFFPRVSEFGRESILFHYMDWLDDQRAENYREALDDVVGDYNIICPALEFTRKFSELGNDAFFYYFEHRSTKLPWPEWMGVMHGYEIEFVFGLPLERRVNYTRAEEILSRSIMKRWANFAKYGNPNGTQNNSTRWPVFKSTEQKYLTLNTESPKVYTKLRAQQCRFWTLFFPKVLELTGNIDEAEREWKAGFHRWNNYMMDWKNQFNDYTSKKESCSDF
For test [10], the target named is T1, Cholinesterase. The description is as §1. It counts as cell-free.
A short description of test [11]: Metal chelating activity assessed as compound-Cu2+ complex formation by fluorescence emission spectral analysis.
Test [12] in a line: Metal chelating activity assessed as compound-Zn2+ complex formation by UV spectrophotometric analysis.
The nature of test [13]: Metal chelating activity assessed as compound-Cu2+ complex formation by UV spectrophotometric analysis.
For test [14], the target named is Cholinesterase (Equus caballus) (UniProt P81908). Kind of test: Mixed type inhibition of equine serum BuChE assessed as decrease in Vmax with increase in Km by Lineweaver-Burk plot analysis. Type of test: cell-free.

The source made the active and inactive calls. The calls are words filed in the database; no cut-off is given here.

The IC50 is the concentration that inhibits the measured activity by half. A lower IC50 goes with greater potency in that assay. What is called inhibition is the relative decrease from the control value, in per cent. By Ki is commonly meant the dissociation constant of the complex between target and ligand, obtained from inhibition or displacement. A low value points to higher affinity.

T1 sequence (P81908 whole entry): as above
Chain of Acetylcholinesterase (O42275 whole entry): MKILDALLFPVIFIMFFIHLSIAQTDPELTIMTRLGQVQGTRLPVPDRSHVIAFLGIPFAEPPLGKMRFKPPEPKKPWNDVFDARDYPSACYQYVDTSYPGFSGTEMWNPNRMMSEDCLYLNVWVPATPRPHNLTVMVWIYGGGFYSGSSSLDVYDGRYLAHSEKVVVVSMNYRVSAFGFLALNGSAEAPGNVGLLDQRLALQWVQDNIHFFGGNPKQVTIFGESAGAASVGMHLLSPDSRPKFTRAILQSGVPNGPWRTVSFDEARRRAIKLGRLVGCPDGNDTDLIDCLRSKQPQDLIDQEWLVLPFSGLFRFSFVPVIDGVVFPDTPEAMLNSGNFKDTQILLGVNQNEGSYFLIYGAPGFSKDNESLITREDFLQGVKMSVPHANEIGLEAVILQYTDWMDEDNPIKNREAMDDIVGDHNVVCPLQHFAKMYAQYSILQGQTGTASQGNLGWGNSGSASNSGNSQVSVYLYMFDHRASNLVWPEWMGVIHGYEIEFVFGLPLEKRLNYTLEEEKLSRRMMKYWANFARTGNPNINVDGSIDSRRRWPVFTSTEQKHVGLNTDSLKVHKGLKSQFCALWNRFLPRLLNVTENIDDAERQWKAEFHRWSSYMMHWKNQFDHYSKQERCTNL

For the molecule `O=C1C[C@@H](c2ccc(O)cc2)Oc2cc(O)cc(O)c21` [NARINGENIN], the IC50 against Cholinesterase [1] and at Acetylcholinesterase was over 100 µM throughout. For the same molecule, the outcome in test [2] and in test [5] was Active. Further, the inhibition in test [3] worked out at 44.9%; in test [4], 69.2%.
In the case of `O=C1CC(c2ccc(O)cc2)Oc2cc(OC(=O)N3CCCCC3)cc(O)c21` (centres undefined), the outcome in test [6], in test [7], in [8], in test [2], in test [12] and in [13] was Active. For the same molecule, in test [5], the result was Active. Also, the IC50 at Cholinesterase [1] is 0.094 µM; at Acetylcholinesterase it was 62.5 µM. The Ks in test [9] was 0.469 µM. This molecule displayed a Ki on Cholinesterase [10] of 1600 nM. The inhibition in test [3] is 36.1%; in test [4] it was 61.1%. The result in test [11] was inactive. Also, in test [14], the inhibition result is “Active”.
Regarding `COc1cc(/C=C/C(=O)CC(=O)/C=C/c2ccc(O)c(OC)c2)ccc1O`, the inhibition in test [4] is 73.3%.
Regarding `O=C1CC(c2ccc(O)cc2)Oc2cc(OC(=O)N3CCOCC3)cc(O)c21` (centres undefined), the outcome in test [6], in test [8] and in test [13] was Active. Moreover, the IC50 at Cholinesterase [1] was 13.7 µM; at Acetylcholinesterase it was 12.9 µM. For the same molecule, the inhibition in test [3] stood at 62.3%; in [4], 60.9%. In test [11], the result was inactive.
For the molecule `CN(C)C(=O)Oc1ccc(C2CC(=O)c3c(O)cc(OC(=O)N(C)C)cc3O2)cc1` (centres undefined), the outcome in test [6], in [7], in test [8], in test [12] and in [13] was Active. For the same molecule, the IC50 is 12.2 µM against Cholinesterase [1] and 23.9 µM against Acetylcholinesterase. Also, the inhibition in test [3] stood at 62.4%; in test [4], 53.5%. Further, the result in [11] was inactive.
For `CCN(C)C(=O)Oc1cc(O)c2c(c1)OC(c1ccc(O)cc1)CC2=O` (centres undefined), the result in [6], in test [8], in test [12] and in test [13] was Active. Besides, the IC50 on Cholinesterase [1] was determined as 3.42 µM; at Acetylcholinesterase, 28.3 µM. Also, the inhibition in test [3] was 66.5%; in [4] it was 65.5%. Further, the outcome in [11] was inactive.
